Counter-ions that a name gives are not always drawn.
What was measured:
[1] = MDR1 LLC-PK1 and BCRP MDCKII permeability assay: permeability coefficient (Papp); format: in vitro ADME
Source text: (§1) Final organic concentration in the assay was 1%.

[2] = target: full-length FLAG-tagged B-Raf(V600E) (Homo sapiens (Human), UniProt P15056, V600E); test: BRAF V600E enzyme assay (TR-FRET competitive displacement); format: binding; conditions: averaged IC50; TR-FRET tracer displacement, 60 min
How it was run: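 Displacement of 50 nM Tracer 1710 from 5 nM full-length N-terminally FLAG-tagged B-Raf(V600E), detected by TR-FRET with 0.5 nM Eu anti-FLAG antibody, in 25 mM HEPES pH 7.4, 10 mM MgCl2, 2% DMSO; 60 min at ~22 °C. Compounds 11-point, 3-fold from 10 μM; IC50 from 4-parameter fit at 50 POC.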

A375 cells = test: Cellular phospho-ERK inhibition assay in A375 cells; format: cell-based; conditions: Homo sapiens, A-375, A375 cells (head prints A357), 2 hours treatment, read-out: A357 cell IC50
How it was run: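 A375 (DMEM) or H1755 (RPMI) cells in 10% FBS treated 2 h at 37 °C with 9-point series, 66 pM–10 μM, 0.25% DMSO. Phospho-ERK1/2 (Thr202/Tyr204) measured by In Cell Western, normalised to GAPDH and to DMSO and 10 μM binimetinib controls; IC50 by 4-parameter fit.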

BCRP = BCRP (Homo sapiens (Human), UniProt Q9UNQ0); test: BCRP MDCKII permeability assay: efflux ratio; format: in vitro ADME; conditions: dog
H1755 cells = test: Cellular phospho-ERK inhibition assay in H1755 cells; format: cell-based; conditions: Homo sapiens, NCI-H1755, 2 hours treatment, read-out: H1755 Cell IC50
Protocol: A375 and H1755 cells were obtained from the American Type Culture Collection (ATCC, Rockville, MD). A375 cells were maintained in DMEM growth medium containing 10% FBS. H1755 cells were maintained in RPMI growth medium containing 10% FBS.
Cells were harvested according to standard protocols, counted and plated onto flat-bottom, 96-well tissue culture plates (Costar #3599) at 2.5×10^4 cells/well for A375 cells and 1.5×10^4 cells/well for H1755 cells in 100 μL/well of growth medium containing 10% FBS. After an overnight incubation at 37° C. with 5% CO2 cells were treated for 2 hours at 37° C., 5% CO2 with compounds prepared as a 9-point, 1:3.33 fold dilution series with final compound concentrations ranging from 66 pM-10 μM and a constant DMSO concentration of 0.25%. Control wells contained either 0.25% DMSO alone (uninhibited control) or 10 μM binimetinib (complete inhibition control). The levels of phosphorylated ERK are determined using an In Cell Western protocol: following compound incubation, growth medium was discarded, and cells were fixed with 0.4% formaldehyde in PBS for 20 minutes at room temperature. Cells were permeabilized with 100% methanol for 10 minutes at room temperature. Plates were washed with PBS containing 0.05% Tween-20 and blocked for 1 hour at room temperature with LI-COR Blocking Buffer (LI-COR Biosciences; Cat #927-40000). Plates were then incubated for 2 hours at room temperature with 50 μL of a 1:400 dilution of anti-phospho-ERK1/2 (Thr202/Tyr204) (Cell Signaling; Cat #9101) and a 1:1000 dilution of anti-GAPDH (Millipore; Cat #MAB374) in LI-COR blocking buffer containing 0.05% Tween-20. Plates were washed with PBS containing […] Tween-20 then incubated at room temperature for 1 hour with 50 μL of a 1:1000 dilution of anti-rabbit AlexaFluor 680 (Life Technologies; Cat #A21109) and a 1:1000 dilution of anti-mouse IRDye 800CW (LI-COR; Cat #926-32210) in LI-COR blocking buffer containing 0.05% Tween-20. Plates were analyzed by reading on an Odyssey CLx infrared scanner. For each well, the phospho-ERK signal was normalized to the GAPDH signal and converted to POC using the following equation:
[formula] • Where: • Xmax Average Uninhibited Controls • Xmin Average Complete Inhibition Controls IC50 values were then calculated using a 4-parameter fit in XLfit software and are provided in Table A1.

P-gp (MDR1) = P-gp (MDR1) (Homo sapiens (Human), UniProt P08183); test: MDR1 LLC-PK1 permeability assay: efflux ratio; format: in vitro ADME; conditions: pig
Source text: as §1

Chain of BCRP (Q9UNQ0 whole entry): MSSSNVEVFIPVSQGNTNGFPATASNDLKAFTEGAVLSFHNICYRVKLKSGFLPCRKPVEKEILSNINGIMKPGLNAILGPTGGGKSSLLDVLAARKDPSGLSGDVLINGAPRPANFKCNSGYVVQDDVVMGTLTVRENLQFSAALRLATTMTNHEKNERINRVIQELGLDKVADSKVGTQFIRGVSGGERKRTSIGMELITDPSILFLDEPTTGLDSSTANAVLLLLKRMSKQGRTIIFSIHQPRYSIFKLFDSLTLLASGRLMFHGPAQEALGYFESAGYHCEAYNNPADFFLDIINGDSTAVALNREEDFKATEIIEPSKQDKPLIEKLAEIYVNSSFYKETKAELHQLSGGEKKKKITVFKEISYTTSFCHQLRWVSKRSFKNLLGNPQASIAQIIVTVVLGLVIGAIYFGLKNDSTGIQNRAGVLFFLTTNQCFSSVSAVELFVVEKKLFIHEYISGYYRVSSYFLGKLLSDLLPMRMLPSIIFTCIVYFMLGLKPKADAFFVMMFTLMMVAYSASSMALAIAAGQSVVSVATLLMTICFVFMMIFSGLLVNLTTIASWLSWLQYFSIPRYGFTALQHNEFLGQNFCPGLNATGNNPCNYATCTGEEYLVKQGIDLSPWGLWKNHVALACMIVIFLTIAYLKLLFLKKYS
Chain of P-gp (MDR1) (P08183 whole entry, species assumed): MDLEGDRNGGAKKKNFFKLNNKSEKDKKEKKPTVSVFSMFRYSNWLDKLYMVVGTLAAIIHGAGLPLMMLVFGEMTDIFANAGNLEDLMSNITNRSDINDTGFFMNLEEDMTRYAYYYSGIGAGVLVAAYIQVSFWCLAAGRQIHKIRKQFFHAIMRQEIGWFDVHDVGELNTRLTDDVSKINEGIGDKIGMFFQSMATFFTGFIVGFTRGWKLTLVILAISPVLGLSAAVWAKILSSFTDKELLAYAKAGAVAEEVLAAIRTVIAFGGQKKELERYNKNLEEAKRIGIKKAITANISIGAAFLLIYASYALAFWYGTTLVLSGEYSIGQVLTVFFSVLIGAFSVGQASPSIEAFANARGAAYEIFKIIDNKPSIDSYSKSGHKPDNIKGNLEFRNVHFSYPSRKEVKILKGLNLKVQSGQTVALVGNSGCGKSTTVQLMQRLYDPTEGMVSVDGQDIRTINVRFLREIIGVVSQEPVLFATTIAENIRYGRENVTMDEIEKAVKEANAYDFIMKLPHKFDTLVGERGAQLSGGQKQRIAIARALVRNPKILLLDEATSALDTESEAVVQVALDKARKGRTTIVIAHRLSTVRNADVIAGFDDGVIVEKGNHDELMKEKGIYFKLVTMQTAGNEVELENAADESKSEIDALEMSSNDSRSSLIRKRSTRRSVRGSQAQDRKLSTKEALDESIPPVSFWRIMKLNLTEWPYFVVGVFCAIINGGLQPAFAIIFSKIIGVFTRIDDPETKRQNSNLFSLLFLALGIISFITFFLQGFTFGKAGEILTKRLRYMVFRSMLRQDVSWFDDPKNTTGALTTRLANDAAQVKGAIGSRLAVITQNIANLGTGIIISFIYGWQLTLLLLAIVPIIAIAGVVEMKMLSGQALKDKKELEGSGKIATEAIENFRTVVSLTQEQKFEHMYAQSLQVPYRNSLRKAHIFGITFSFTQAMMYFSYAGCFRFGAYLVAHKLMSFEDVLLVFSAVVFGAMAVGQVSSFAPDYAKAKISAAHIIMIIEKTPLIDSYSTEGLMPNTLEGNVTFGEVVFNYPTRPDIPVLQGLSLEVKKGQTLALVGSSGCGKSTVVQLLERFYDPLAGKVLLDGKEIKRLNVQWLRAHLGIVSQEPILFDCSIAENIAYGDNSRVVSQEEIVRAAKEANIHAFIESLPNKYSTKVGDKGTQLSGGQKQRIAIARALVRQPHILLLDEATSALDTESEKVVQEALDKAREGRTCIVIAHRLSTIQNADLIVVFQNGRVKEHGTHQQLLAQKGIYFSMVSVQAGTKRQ
Chain of full-length FLAG-tagged B-Raf(V600E) (P15056 whole entry V600E): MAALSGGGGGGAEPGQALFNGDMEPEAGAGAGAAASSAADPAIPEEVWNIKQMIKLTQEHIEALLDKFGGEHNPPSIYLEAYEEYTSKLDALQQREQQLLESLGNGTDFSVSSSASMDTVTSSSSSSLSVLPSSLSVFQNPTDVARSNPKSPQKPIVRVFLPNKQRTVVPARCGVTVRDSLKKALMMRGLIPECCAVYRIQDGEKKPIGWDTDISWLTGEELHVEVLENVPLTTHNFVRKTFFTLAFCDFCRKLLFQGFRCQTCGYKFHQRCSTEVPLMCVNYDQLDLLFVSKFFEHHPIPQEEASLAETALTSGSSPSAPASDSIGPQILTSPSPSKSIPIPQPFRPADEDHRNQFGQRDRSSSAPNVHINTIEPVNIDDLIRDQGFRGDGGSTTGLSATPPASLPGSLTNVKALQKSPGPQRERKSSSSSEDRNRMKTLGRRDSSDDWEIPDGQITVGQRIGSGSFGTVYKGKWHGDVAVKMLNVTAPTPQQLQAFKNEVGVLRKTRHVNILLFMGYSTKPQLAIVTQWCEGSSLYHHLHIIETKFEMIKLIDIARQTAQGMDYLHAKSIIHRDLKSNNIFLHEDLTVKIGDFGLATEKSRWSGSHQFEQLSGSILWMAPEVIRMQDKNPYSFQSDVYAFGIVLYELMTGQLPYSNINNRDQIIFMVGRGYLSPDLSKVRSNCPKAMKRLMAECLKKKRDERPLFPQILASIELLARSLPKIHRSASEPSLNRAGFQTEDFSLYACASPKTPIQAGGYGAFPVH

| Compound | Papp at 2 h, 1 µM [1] | IC50 [2] | IC50 (A375 cells) | efflux ratio at 2 h, 1 µM (BCRP) | IC50 (H1755 cells) | efflux ratio at 2 h, 1 µM (P-gp (MDR1)) |
| --- | --- | --- | --- | --- | --- | --- |
| CO[C@@H]1CN(S(=O)(=O)Nc2ccc(F)c(Nc3ccc4ncn(C)c(=O)c4c3F)c2Cl)C[C@@H]1F (relative stereo) [Example 15, cis-N-(2-chloro-4-fluoro-3-((5-fluoro-3-methyl-4-oxo-3,4-dihydroquinazolin-6-yl)amino)phenyl)-3-fluoro-4-methoxypyrrolidine-1-sulfonamide] | 26 ×10⁻⁶ cm/s | 6 nM | 2 nM | 13.4 | 16 nM | 6.8 |
| Cn1cnc2ccc(Nc3cc(Cl)cc(NS(=O)(=O)N4CC[C@@H](F)C4)c3F)c(Cl)c2c1=O [Example 56, (R)-N-(5-chloro-3-((5-chloro-3-methyl-4-oxo-3,4-dihydroquinazolin-6-yl)amino)-2-fluorophenyl)-3-fluoropyrrolidine-1-sulfonamide trifluoroacetate] |  | 1 nM | 4 nM | 2.8 | 23 nM | 2.3 |
| Cn1cnc2ccc(Oc3c(F)ccc(NS(=O)(=O)N4CC(F)C4)c3Cl)c(Cl)c2c1=O [Example 120, N-(2-chloro-3-((5-chloro-3-methyl-4-oxo-3,4-dihydroquinazolin-6-yl)oxy)-4-fluorophenyl)-3-fluoroazetidine-1-sulfonamide] | 30 ×10⁻⁶ cm/s | 2 nM | 4 nM |  | 69 nM | 3.8 |

The next lines start with the values.

| Papp at 2 h, 1 µM [1] | IC50 [2] | IC50 (A375 cells) | efflux ratio at 2 h, 1 µM (BCRP) | IC50 (H1755 cells) | efflux ratio at 2 h, 1 µM (P-gp (MDR1)) | Compound |
| --- | --- | --- | --- | --- | --- | --- |
| 34 ×10⁻⁶ cm/s |  | 2 nM | 5.1 | 16 nM | 3.8 | Cn1cnc2ccc(Nc3c(F)ccc(NS(=O)(=O)N4CC(F)C4)c3Cl)c(F)c2c1=O [Example 127, N-(2-chloro-4-fluoro-3-((5-fluoro-3-methyl-4-oxo-3,4-dihydroquinazolin-6-yl)amino)phenyl)-3-fluoroazetidine-1-sulfonamide trifluoroacetate] |
| 36 ×10⁻⁶ cm/s | 13 nM | 3 nM |  | 33 nM | 2.7 | COCC1CN(S(=O)(=O)Nc2ccc(F)c(Nc3ccc4ncn(C)c(=O)c4c3Cl)c2Cl)C1 [Example 132, N-(2-chloro-3-((5-chloro-3-methyl-4-oxo-3,4-dihydroquinazolin-6-yl)amino)-4-fluorophenyl)-3-(methoxymethyl)azetidine-1-sulfonamide trifluoroacetate] |
| 33 ×10⁻⁶ cm/s | 5 nM | 1 nM |  | 11 nM | 5.7 | COCC1CN(S(=O)(=O)Nc2ccc(F)c(Nc3ccc4ncn(C)c(=O)c4c3F)c2Cl)C1 [Example 133, N-(2-chloro-4-fluoro-3-((5-fluoro-3-methyl-4-oxo-3,4-dihydroquinazolin-6-yl)amino)phenyl)-3-(methoxymethyl)azetidine-1-sulfonamide trifluoroacetate] |
| 32 ×10⁻⁶ cm/s | 4 nM | 3 nM |  | 10 nM | 5.3 | Cn1cnc2ccc(Nc3c(F)ccc(NS(=O)(=O)N4CC(COC(F)F)C4)c3Cl)c(F)c2c1=O [Example 139, N-(2-chloro-4-fluoro-3-((5-fluoro-3-methyl-4-oxo-3,4-dihydroquinazolin-6-yl)amino)phenyl)-3-((difluoromethoxy)methyl)azetidine-1-sulfonamide trifluoroacetate] |
| 34 ×10⁻⁶ cm/s |  | 99 nM | 1.2 | 1770 nM | 1.4 | Cc1c(Nc2c(F)ccc(NS(=O)(=O)N3CC(C)(F)C3)c2Cl)ccc2ncn(C)c(=O)c12 [Example 155, N-(2-chloro-3-((3,5-dimethyl-4-oxo-3,4-dihydroquinazolin-6-yl)amino)-4-fluorophenyl)-3-fluoro-3-methylazetidine-1-sulfonamide trifluoroacetate] |
